Test results as given in patent publication US20240226126A1, “COMPOSITIONS FOR TREATMENT OF PSORIASIS” (The Board of Trustees of the Leland Stanford Junior …, priority 2021, published 2024).
pIC50: −log10 of the molar value. Entries after “also recorded” stand apart in the source; their conditions may differ. Where two headings read alike, the source gives them in different places.

How the values were obtained:
[1] = test system: Human Primary keratinocytes; test: Cytokine response of TNF-α/IL-17 stimulated keratinocytes (Luminex); assay type: cell-based; conditions: TNF-α 10 ng/ml and IL-17 10 ng/ml, 48 hours
Procedure: Human Primary keratinocytes were purchased from Thermo Fisher. Keratinocytes were cultured in medium 154 supplemented with HKGS, split using TrypLE and neutralized using DMEM supplemented with 10% FBS. Cells were split to keep 20-80% confluency and not passaged above passage 5. Keratinocytes were detached using TrypLE Express, Trypsin Neutralizer solution was added and the detached cells transferred to a sterile conical tube. Cells were resuspended in 15 ml medium with HKGS supplemented (cat no S-001-K) but without hydrocortisone. The cells were pipetted up and down with a 10 ml pipette to ensure a homogeneous cell suspension.
Human primary keratinocytes detached as described above, were resuspended in PBS at 1×10^6 cells/ml and filtered through a 35 μm cell strainer. Cells were stained with CellTrace Violet at 5 μM for 20 minutes at 37° C., 5% CO2. After staining, DMEM supplemented with 10% FBS was added to stop staining and cells was incubated at 37° C., 5% CO2 for 5 minutes. After incubation, cells were washed with PBS 1× and resuspended in Medium 154 supplemented with HGKS without hydrocortisone at 6×10^5 cells/ml and 200 μl was added to wells in a 96-well flat bottom cell culture plate. Cells were incubated overnight at 37° C., 5% CO2/95% air. […]
Supernatants were analyzed for cytokines IL-6, IL-8, and CXCL1 using Luminex. […] Samples were analyzed on a Bio-Rad Luminex 200 analyzer. […]

[2] = test system: primary psoriasis keratinocytes (PSOKC); test: MTT proliferation assay, primary psoriasis keratinocytes; assay type: cell-based, human; conditions: for proliferation in PSOKCs: 10 μM
Procedure: MTT assays. 10000 third-passage adult keratinocytes per well, or 25000 for IC50 curves, were seeded on a collagen-coated 96 well plate, and incubated with 50/50 (Medium 154 and Keratinocyte—SFM medium, Invitrogen with Human Keratinocytes Growth Supplement, S-001-5, Invitrogen, and Medium 154 supplement M-154-6 500, Invitrogen) with 1% antibiotic-antimycotic (30-004-CI, Mediatech Inc) for 48 h. 10 ul MTT reagent (MTT proliferation assay, ATCC, Manassas, US) was added for 4 h, 100 ul detergent was added to each well for 4 hours, and absorbance read at 570 nm (Spectramax M5, Molecular Devices, US), normalized to cell-free control absorbance.
Small molecule inhibition. All small molecules were diluted into concentrated stock solutions (all except YM-244769 were made into 50 mM stock solutions) in DMSO, and stored in aliquots at −20 C. Aliquots were thawed, then diluted to a 1000× stock concentration, then added to media so that final DMSO concentration is 0.1%. All in vitro studies entailing small molecule inhibition were accessed over 24 hour incubation period.
Statistical analysis. Microrarray data was analyzed using the affy package from Bioconductor on R statistical software package. Other statistical analysis was performed using Graphpad Prism 7.03, and statistical tests (unpaired t-tests with Welch correction, paired t-test, Mann-Whitney unpaired test, and linear regression analysis with goodness of fit) and sample sizes are outlined in each figure legend. Components of signature for goodness of fit by linear regression analysis were extrapolated from the benzamil rank aggregation algorithm All error bars denotes standard error of the mean. For IC50 calculations, MTT data absorbance values were calculated for percent change from the 0.1% DMSO vehicle condition. A non-linear fitted curve [log (inhibitor) vs response (three parameters)] in GraphPad Prism 7 was used to determine IC50 values. For mouse and xenograft experiments, ad hoc power calculations were based on prior phenotypic characterization of these models. Transgenic mice were randomized from same litters when possible, or based on similar phenotypic disease severity, and all experiments were run in triplicates or more. Sample size of xenografts mice studies were based on patient sample availability and a predicted graft take rate of 80%. For all comparisons, p values of less than 0.05 were considered statistically significant. All tests were two-tailed unless specified in figure legends.
(§1) Small molecule inhibitors. 10 uM benzamil hydrochloride hydrate (Sigma B2417), 10 uM amiloride hydrochloride (Tocris 890) 10 uM zoniporide dihydrochloride (Tocis 2727), 10 nM YM-244769 (Tocris 4544), 10 uM SEA 0400 2-[4-[(2,5-944 difluorophenyl)methoxy]phenoxy]-5-ethoxyaniline) (Tocris 6164), 10 uM triamterene (Sigma-Aldrich T4143).

Rac1V12 transgenic mice = test: Rac1V12 transgenic mouse model of psoriasis; assay type: in vivo
Procedure: Transgenic mice and mice for xenografting Rac1V12-transgenic mice were generated as previously described. For xenografting, NOD/SCID mice were used (NOD.CB17-PrkdcSCID/J mice; stock 001303; The Jackson Laboratory).
Topical formulation and administration. A rudimentary preparation of benzamil was tested using benzamil (6 mg/ml, benzamil, Sigma) in 100% ethanol. This solution was then topically applied through submerged and air-drying tails of mice under anesthesia, once daily for 15 days. Similarly, benzamil was suspended in water (2 mg/ml), then mixed into Vaseline, vortexed and centrifuged until a clear solution was obtained. A final formulation of benzamil is described in supplementary material and methods. For intraperitoneal injections, benzamil was dissolved at 2 mg/ml in water, and 0.7, 1.4 or 2.1 mg/kg was injected IP daily. For osmotic pump injections, Alzet osmotic pumps were used, (Alzet minipump 1002). Pumps were filled with 100 ul of benzamil in ethanol under sterile conditions, at a final dose of 2 mg/kg/day, and subcutaneous, inter-scapular implantations were performed under anesthesia. Pumps were replaced once for a total of 2×14 days treatment period.
Topical formulation of benzamil. A labrasol (88%) based formulation of benzamil was generated containing benzamil (1%, w/w), span-20 (1%) and cetyltrimethylammonium bromide (CTAB) (10%). Constituents were dissolved in ethyl alcohol, mixed well using vortex and sonication at 37° C. until a clear solution was obtained. Ethyl alcohol was evaporated in a Speedvac. The residue was suspended in Labrasol and homogenized to obtain the final formulation.
For a final formulation of benzamil (for use on human reconstructed skin), 52 ml water, 5.2 ml glycerin, 9.7 ml rice bran oil, 4 ml caprylic aid triglyceride, 6.2 g cetearyl alcohol, 8.6 g 50/50 mixture of cetearyl glucoside and cetearyl alcohol and 3.5 g cocoa butter was heated to 75° C. until dissolved, removed from heat, mixed using Cimarec 2 magnetic stir. At 45° C. […]

[3] = test system: V12KC (primary keratinocytes transduced with V12 Rac1); test: Proliferation of V12 Rac1 transduced primary keratinocytes vs LacZ control; assay type: cell-based; conditions: Homo sapiens, Keratinocyte
PSOKCs = test: Intracellular pH assay (pHrodo red); assay type: cell-based, human; conditions: PSOKCs / primary keratinocytes overexpressing Rac1, 24 h, 10 uM; listed as Zoniporide
Procedure: Intracellular pH assays 25,000 were seeded per well of 96-well plate and allowed cells to settle and recover for 24 hrs. Small molecules or 0.1% DMSO vehicle control was added to culture media for 24 hours (n=6-8). Cells were washed once with 1× Live Cell Imaging Solution (LCIS) (ThermoFisher A14291DJ), and then incubated with pHrodo red (ThermoFisher P35372), PowerLoad (ThermoFisher P35372), in LCIS with added 1:5000 Hoechst (Life Technologies) for 30 min at 37 C 5% CO2 with corresponding small molecule added at same concentration used for 24 hour incubation.
as §1
Intracellular pH assays and standard curves. Cells were also washed 3 times with 1×LCIS with the last wash of 100 uL kept on cells. For generation of pH standard curve, additional wells (n=6-8) were treated as described with an addition of 0.1% DMSO vehicle for 24 hours. […] The 96-well plate was then read on a fluorescence microplate reader (Spectramax M5, Molecular Devices) with excitation/emission of […] and 361/497. […]

C=C(CC)C(=O)c1ccc(OCC(=O)O)c(Cl)c1Cl [Ethacrynic acid]
concentration with decrease of IL-8 [1]: 10 µM

Cc1cc(I)ccc1Nc1c(C(=O)NOCC2CC2)cc(F)c(F)c1F [PD198306]
concentration with decrease of CXCL1 [1]: 100 nM

N=C(N)NC(=O)c1nc(Cl)c(N)nc1N [amiloride]
proliferation in PSOKCs [2]: not achieved by amiloride or triamterene; also recorded: not amiloride or triamterene reduced proliferation
psoriasiform hyperplasia (Rac1V12 transgenic mice; systemic): failed to demonstrate any effect

NC(=NCc1ccccc1)NC(=O)c1nc(Cl)c(N)nc1N [benzamil]
pIC50 ([2]; cells from 5 psoriasis donors, read-out: IC50 on proliferation): ~6.00
pIC50 ([2]; range across donors, read-out: IC50 range in five psoriasis donor primary keratinocyte cultures): 5.34 to 10.00
pIC50 [3]: 6.00

C[C@H]1C[C@H]2[C@@H]3CCC4=CC(=O)C=C[C@]4(C)[C@@]3(F)[C@@H](O)C[C@]2(C)[C@@]1(O)C(=O)CCl [clobetasol]
epidermal thickness (Rac1V12 transgenic mice; topical, compared to vehicle): reduction in epidermal thickness

Nc1nc(N)c2nc(-c3ccccc3)c(N)nc2n1 [triamterene]
proliferation in PSOKCs [2]: not achieved by amiloride or triamterene; also recorded: not amiloride or triamterene reduced proliferation

N=C(N)NC(=O)c1cnn(-c2cccc3ncccc23)c1C1CC1 [zoniporide]
proliferation in PSOKCs [2]: recapitulated benzamil's significant capacity to reduce proliferation
proliferation in PSOKCs ([2]; listed as Zoniporide): reduced proliferation in PSOKCs to levels observed by Benzamil
intracellular pH (PSOKCs): significantly reduced intracellular pH

Bromocriptine
signs of improvement (scaling, ulceration, erythema, epidermal thickening) (Rac1V12 transgenic mice; intraperitoneal 10 mg/kg every other day, 20 treatments, vs baseline): improved after treatment
